Experimental data from patent US4009269A, “Antibiotic compositions and methods from micromonospora purpurea JI-20” (Schering Corporation, priority 1975, dated 1977).
Values after ≈ are worked out from the molar mass of the structure shown. Where a name gives a salt, the structure may show the parent alone.

Assays:
[1] = system: Staphylococcus aureus ATCC 6538P; experiment: Disc-plate assay (bioassay potency); type: cell-based; details: for potency (assay against standard Antibiotic JI-20B base): vs standard Antibiotic JI-20B base, assigned potency 1000 mcg/mg
Procedure: Peak antibiotic production is determined by a disc-plate assay which uses Staphylococcus aureus ATCC 6538P as the test organism and which is performed substantially as described by Oden, et al. Antimicrobial Agents and Chemotherapy, 1963, pages 8-13.
The reference standard is Antibiotic JI-20B base having an assigned potency of 1000 mcg/mg. One (1) microgram of the standard in one (1) ml. of 0.1M phosphate buffer at pH 8.0 elicits a zonal response of 16.8± 1.5 mm. The standard Antibiotic JI-20B sulfate assays 730 mcg/mg against the standard base. Antibiotic JI-20A base and the corresponding sulfate assay 723 mcg/mg. and 527 mcg/mg., respectively, when assayed against the standard Antibiotic JI-20B base.

[2] = pKa; type: physicochemical
[3] = system: Pseudomonas aeruginosa 413; experiment: In vivo mouse protection test; details: ip, Pseudomonas aeruginosa 413 i.p. infection, dosed twice (0 and 4 h), survivors at 48 hours, read-out: PD50
Procedure: (§1) To determine the in vivo protective activity of the antibiotics against lethal infections of pathogenic bacterial origin in mice, mice were dosed twice with the individual antibiotic, with a solution or a suspension in an aqueous vehicle containing 0.5 % carboxy-methyl-cellulose (CMC), once immediately before an intraperitoneal injection of the infecting bacteria and once 4 hours after such injection. The number of survivors was determined 48 hours after infection and that data analyzed by standard probit procedures to determine PD50 values with 95% confidence limits. The following chart sets forth the protective activity of the antibiotics against a pathogenic bacterium.

[4] = system: Pseudomonas aeruginosa 1516-7; experiment: In vivo mouse protection test; details: 15167, ip, Pseudomonas aeruginosa 1516-7 i.p. infection, dosed twice (0 and 4 h), survivors at 48 hours, read-out: PD50
Procedure: as §1

[5] = system: Staphylococcus aureus; experiment: In vivo mouse protection test; details: ip, Staphylococcus aureus i.p. infection, dosed twice (0 and 4 h), survivors at 48 hours, read-out: PD50
Procedure: as §1

[6] = system: Escherichia coli 626; experiment: In vivo mouse protection test; details: ip, Escherichia coli 626 i.p. infection, dosed twice (0 and 4 h), survivors at 48 hours, read-out: PD50
Procedure: as §1

[7] = system: Staphylococcus aureus Gray 979; experiment: In vivo mouse protection test; details: GRAY979, ip, Staphylococcus aureus Gray 979 i.p. infection, dosed twice (0 and 4 h), survivors at 48 hours, read-out: PD50
Procedure: as §1

[8] = system: Escherichia coli 11775; experiment: In vivo mouse protection test; details: ip, Escherichia coli 11775 i.p. infection, dosed twice (0 and 4 h), survivors at 48 hours, read-out: PD50
Procedure: as §1

[9] = system: Salmonella sp. S.C.; experiment: In vivo mouse protection test; details: 48 h, read-out: PD50
Procedure: as §1

[10] = system: Streptococcus pyogenes C2V; experiment: In vivo mouse protection test; details: ip, Streptococcus pyogenes C2V i.p. infection, dosed twice (0 and 4 h), survivors at 48 hours, read-out: PD50
Procedure: as §1

[11] = system: Staphylococcus aureus 45; experiment: In vitro MIC, Mueller-Hinton broth; type: cell-based; details: 24 hours, expressed as free base, tested as sulfate
Procedure: (§2) In the table set forth below are test results after 24 hours incubation against representative gram positive and gram negative bacteria.

[12] = system: Pseudomonas aeruginosa 59; experiment: In vitro MIC, Mueller-Hinton broth; type: cell-based; details: 24 hours, expressed as free base, tested as sulfate
Procedure: as §2

[13] = system: Staphylococcus aureus 70; experiment: In vitro MIC, Mueller-Hinton broth; type: cell-based; details: 24 hours, expressed as free base, tested as sulfate
Procedure: as §2

[14] = system: Pseudomonas aeruginosa 60; experiment: In vitro MIC, Mueller-Hinton broth; type: cell-based; details: 24 hours, expressed as free base, tested as sulfate
Procedure: as §2

[15] = system: Staphylococcus aureus 2059; experiment: In vitro MIC, Mueller-Hinton broth; type: cell-based; details: 24 hours, expressed as free base, tested as sulfate
Procedure: as §2

[16] = system: Escherichia coli 11775; experiment: In vitro MIC, Mueller-Hinton broth; type: cell-based; details: 24 hours, expressed as free base, tested as sulfate
Procedure: as §2

[17] = system: Klebsiella rhinoscleromatis 18804; experiment: In vitro MIC, Mueller-Hinton broth; type: cell-based; details: Klebsiella pneumoniae, 24 hours, expressed as free base, tested as sulfate
Procedure: as §2

[18] = system: Klebsiella pneumonia 13883; experiment: In vitro MIC, Mueller-Hinton broth; type: cell-based; details: Klebsiella pneumoniae, 24 hours, expressed as free base, tested as sulfate
Procedure: as §2

[19] = system: Escherichia coli 12740; experiment: In vitro MIC, Mueller-Hinton broth; type: cell-based; details: 24 hours, expressed as free base, tested as sulfate
Procedure: as §2

[20] = system: Proteus mirabilis 8019; experiment: In vitro MIC, Mueller-Hinton broth; type: cell-based; details: 24 hours, expressed as free base, tested as sulfate
Procedure: as §2

[21] = system: Klebsiella pneumoniae 18; experiment: In vitro MIC, Mueller-Hinton broth; type: cell-based; details: 24 hours, expressed as free base, tested as sulfate
Procedure: as §2

[22] = Acute toxicity; details: in vivo, iv, I.V.

| Structure (SMILES) | potency (assay against standard Antibiotic JI-20B base) [1] [µg/mg] | pKa [2] | ED50 [3] [mg/kg] | ED50 [4] [mg/kg] | ED50 [5] [mg/kg] | ED50 [6] [mg/kg] | ED50 [7] [mg/kg] | ED50 [8] [mg/kg] | ED50 [9] [mg/kg] | ED50 [10] [mg/kg] | MIC [11] [µg/mL] | MIC [12] [µg/mL] | MIC [13] [µg/mL] | MIC [14] [µg/mL] | MIC [15] [µg/mL] | MIC [16] [µg/mL] | MIC [17] [µg/mL] | MIC [18] [µg/mL] | MIC [19] [µg/mL] | MIC [20] [µg/mL] | other results |
| --- | --- | --- | --- | --- | --- | --- | --- | --- | --- | --- | --- | --- | --- | --- | --- | --- | --- | --- | --- | --- | --- |
| CNC1C(O)C(OC2C(N)CC(N)C(OC3OC(CN)C(O)C(O)C3N)C2O)OCC1(C)O (stereo not shown) [Antibiotic JI-20A sulfate] | 527 | – | – | – | – | – | – | – | – | – | – | – | – | – | – | – | – | – | – | – | – |
| CNC1C(O)C(OC2C(N)CC(N)C(OC3OC(CN)C(O)C(O)C3N)C2O)OCC1(C)O (stereo not shown) [Antibiotic JI-20A] | – | 8.1 | 50 | 50 | 2.9 | 15 | 3 | 4 | 3 | 40 | 0.3 (≈ 0.623 µM) | 3 (≈ 6.23 µM) | 3 (≈ 6.23 µM) | 3 (≈ 6.23 µM) | 7.5 (≈ 15.6 µM) | 0.3 (≈ 0.623 µM) | 0.05 (≈ 0.104 µM) | 7.05 (≈ 14.6 µM) | 0.3 (≈ 0.623 µM) | 0.8 (≈ 1.66 µM) | MIC [21]: 7.5 µg/mL (≈ 15.6 µM); LD50 [22]: 115 mg/kg; potency (assay against standard Antibiotic JI-20B base) ([1]; listed as Antibiotic JI-20A base): 723 µg/mg |
| CN[C@@H]1[C@@H](O)[C@@H](O[C@@H]2[C@@H](O)[C@H](O[C@H]3O[C@H](C(C)N)[C@@H](O)[C@H](O)[C@H]3N)[C@@H](N)C[C@H]2N)OC[C@]1(C)O (stereo partly shown) [Antibiotic JI-20B sulfate] | 730 | – | – | – | – | – | – | – | – | – | – | – | – | – | – | – | – | – | – | – | – |
| CN[C@@H]1[C@@H](O)[C@@H](O[C@@H]2[C@@H](O)[C@H](O[C@H]3O[C@H](C(C)N)[C@@H](O)[C@H](O)[C@H]3N)[C@@H](N)C[C@H]2N)OC[C@]1(C)O (stereo partly shown) [Antibiotic JI-20B] | – | 8.1 | 50 | 50 | 14 | 15 | 2.8 | 8 | 4.5 | 40 | 0.3 (≈ 0.605 µM) | 7.5 (≈ 15.1 µM) | 3 (≈ 6.05 µM) | 17.5 (≈ 35.3 µM) | 7.5 (≈ 15.1 µM) | 0.8 (≈ 1.61 µM) | 0.08 (≈ 0.161 µM) | 0.08 (≈ 0.161 µM) | 0.3 (≈ 0.605 µM) | 0.8 (≈ 1.61 µM) | MIC [21]: 17.5 µg/mL (≈ 35.3 µM); LD50 [22]: 115 mg/kg; zone of inhibition at 1 µg/mL ([1]; Staphylococcus aureus, ATCC6538P, 1 microgram of standard in 1 ml 0.1M phosphate buffer pH 8.0, read-out: zonal response): 16.8 ± 1.5 mm |
